Article PMC11375702, “Early Preclinical Studies of Ergosterol Peroxide and Biological Evaluation of Its Derivatives” (ACS Omega, 2024)

Key:
[1] = Metabolic stability in mouse liver microsomes; assay type: in vitro ADME; settings: female, CD-1, pooled liver microsomes, read-out: metabolic stability (mouse) t1/2 (converted)
Method: (§1) Human and/or mouse microsomal degradation was determined using multiple time points to monitor the rate of disappearance of the parent compound during incubation following the method described by Di et al.[51],[52] […] The metabolic stability was evaluated via the half-life from the least-squares fit of the multiple time points based on first-order kinetics. Waters ACQUITY-TOQ UPLC-MS-MS-UV system was used to analyze the samples as established in various MS core facilities.[51],[52]

[2] = Metabolic stability in human liver microsomes; assay type: in vitro ADME; settings: both sexes, pooled liver microsomes, read-out: metabolic stability (human) t1/2 (converted)
Method: as §1

[3] = Simulated gastric fluid (SGF) stability; assay type: in vitro ADME; settings: simulated gi fluid; for half-life: SGF stability t1/2
Method: The simulated gastric fluid (SGF) assay is an important element in determining the overall drug-like potential of compounds.[29],[30] Anecdotal studies of oral consumption of extracts by humans indicate positive outcomes of digestion of mixtures of EP and its related natural products found in G. lucidum.[2] […] Chlorambucil was used as positive control as previously described.[32],[33] […] Caco-2 permeability studies were conducted to validate and to provide information on EP’s ability to cross the intestinal barrier and its potential for interactions with drug transporters.[36]−[39] The rate of transport in both directions (A-B and B-A) across the cell monolayer enables an efflux ratio (B-A/A-B) to be determined, enabling us to determine if a compound undergoes active efflux (efflux ratio ≥2).

[4] = system: MDA-MB-231; experiment: CellTiter-Glo 72 h cytotoxicity assay, MDA-MB-231; assay type: cell-based; settings: Homo sapiens, CTG assay, read-out: MDA-MB231 (EC50)
Method: The following stable human cell lines were utilized for this study: SUM149 and MDA-MB-231 (breast cancer models) and BJ (human normal fibroblast, foreskin). Cells were purchased from BioIVT or the American Type Culture Collection (ATCC). Cells were cultured in F-12-Nutrient Mixture (SUM149), DMEM (MDA-MB-231), or EMEM (BJ) medium supplemented with 10% fetal bovine serum (Sigma-Aldrich, St. Louis, MO) and 2 mmol of L-glutamine, at 37 °C in a humidified 5% CO2 atmosphere (no antibiotics) as indicated by the manufacturer. Cell cultures were grown to 80–90% confluence before use, except where otherwise specified. Our cell lines are authenticated every 3 months using the CellCheck service (Idexx BioResearch, Westbrook, ME). Cells were tested for mycoplasma prior to use (MycoAlert detection Kit Lonza LT07–318) and discarded if they tested positive. A cell proliferation assay was performed using the CellTiter-Glo (Promega Corp., Madison, WI) luminescent cell viability assay kit. Cells were detached with trypsin, counted, and seeded in white polystyrene flat-bottom sterile 96-well tissue culture-treated plates (catalog no. 3917, Corning, Glendale, Arizona) and incubated overnight at 37 °C. MDA-MB231, SUM149, and BJ cells were seeded into 96-well plates at concentrations experimentally determined (0.4 × 10^4, 0.25 × 10^4, and 0.3 × 10^4 cells per well, respectively) to ensure logarithmic growth during the duration of the experiment and to prevent adverse effects on cell growth by DMSO exposure. The plates were incubated for 12 h before treatment. Stock solutions of test compounds (10 mM in DMSO) in nine 3-fold serial dilutions were dispensed. The final concentration of DMSO was 0.3% (v/v) in each well. The positive control used was staurosporine (10 μM) as the kill-all control, and the negative control used is DMSO as we have published. Staurosporine is a potent alkaloid inducer of various cell death modalities but primarily apoptosis, making it a reliable positive control for viability assays. The plates were incubated for 72 h and then quenched with CTG at 50 μL per well at RT. Plates were then incubated at RT for 20 min and centrifuged at 1000 rpm for 1 min. Luminescence was read on a CLARIOstar Plus plate reader (BMG LabTech, Ortenberg, Germany).
Three or four technical replicates were conducted for each experimental condition, and a minimum of three independent experiments were conducted for each assay. In vitro ADME values were expressed as mean ± standard deviation (SD) of at least three independent experiments. One-way analysis of variance (ANOVA) was adopted for comparisons among groups using the GraphPad Prism 10.2.3 (GraphPad Software, San Diego, CA). A difference of P < 0.05 was considered as statistically significant. Data are expressed as mean ± SEM. For CTG, the mean luminescence of each experimental treatment group was normalized as a percentage of the mean intensity of untreated controls (DMSO as vehicle). EC50 values were calculated from dose–response curve fitting via nonlinear regression using GraphPad Prism 10.2.3 (GraphPad Software, San Diego, CA). A therapeutic index (TI) between normal and tumor cell lines can be determined (EC50 non-neoplastic cell line BJ)/(EC50 cancer cell line). In vivo studies were analyzed using mixed-effects regression models to compare the changes in tumor volume over time by treatment group. Tumor volume reduction was compared using ANOVA with repeated measures, and all data was considered significant when P < 0.05.

[5] = Caco-2 permeability assay; assay type: in vitro ADME; settings: human; for efflux ratio at 2 h, 10 µmol/L: Caco-2, pH 7.4, Caco-2, read-out: efflux ratio (B2A/A2B); for Papp A→B at 2 h, 10 µmol/L / Papp B→A at 2 h, 10 µmol/L: Caco-2, pH 7.4; for Papp A→B at 2 h, 10 µmol/L: apical to basolateral; for Papp B→A at 2 h, 10 µmol/L: basolateral to apical
Method: It was performed in the 96-well Transwell system with a modified method.[36] Caco-2 cells were maintained at 37 °C in a humidified incubator with an atmosphere of 5% CO2. The cells were cultured in MEM containing 20% FBS in […], 100 units/mL penicillin, and 100 μg/mL of streptomycin. The Caco-2 cells were seeded onto inserts of a 96-well plate at a density of 0.5 × 10^5 cells/insert and cultured in the MEM containing 20% FBS for 7 days. Each cultured monolayer on the 96-well plate was washed twice with HBSS/HEPES (10 mM, pH 7.4). The permeability assay was initiated by the addition of each compound solution (10 μmol/L) into inserts (apical side, A) or receivers (basolateral side, B). The Caco-2 cell monolayers were incubated for 2 h at 37 °C. Fractions were collected from receivers (if apical to basal permeability) or inserts (if basal to apical permeability), and concentrations were assessed by UPLC/MS (Waters; Milford, MA). All compounds were tested in triplicates. The A → B (or B → A) apparent permeability coefficients ([…]) of each compound were calculated using the equation Pappa = dQ/dt × 1/AC0. The flux of a drug across the monolayer is dQ/dt (μmol/s). The initial drug concentration on the apical side is C0 (μmol/L). The surface area of the monolayer is A (cm^2).

Compound | half-life [1] [h] | half-life [2] [h] | half-life [3] [h] | EC50 [4] [µM] | efflux ratio at 2 h, 10 µmol/L [5] | Papp A→B at 2 h, 10 µmol/L [5] [×10⁻⁶ cm/s] | Papp B→A at 2 h, 10 µmol/L [5] [×10⁻⁶ cm/s] | SGF stability t1/2 [3] [h]
CC(C)[C@@H](C)/C=C/[C@@H](C)[C@H]1CC[C@@H]2[C@]1(C)CC[C@H]1[C@]23C=C[C@]2(C[C@@H](O)CC[C@]12C)OO3 [Compound 2, Ergosterol peroxide] | 5.63 | 2.74 | > 48 | 18 | ~1 | 34.2 | 31.9 | 
CC(C)[C@@H](C)/C=C/[C@@H](C)[C@H]1CC[C@@H]2[C@]1(C)CC[C@H]1[C@]23C=C[C@]2(CC(=O)CC[C@]12C)OO3 [Compound 3] | 0.9 | 0.83 | ~9 | 7 | 0.49 | 0.626 | 0.307 | 8.92
